IC50 data for two compounds are collected here from ChEMBL document CHEMBL1146954, “Design and synthesis of 7H-pyrrolo[2,3-d]pyrimidines as focal adhesion kinase inhibitors. Part 1” (Bioorg Med Chem Lett, 2006).

This assay concerns the target Focal adhesion kinase 1 (Homo sapiens, UniProt Q05397). The assay is described as follows: Inhibitory activity against FAK.

Chain of Focal adhesion kinase 1 (Q05397 whole entry): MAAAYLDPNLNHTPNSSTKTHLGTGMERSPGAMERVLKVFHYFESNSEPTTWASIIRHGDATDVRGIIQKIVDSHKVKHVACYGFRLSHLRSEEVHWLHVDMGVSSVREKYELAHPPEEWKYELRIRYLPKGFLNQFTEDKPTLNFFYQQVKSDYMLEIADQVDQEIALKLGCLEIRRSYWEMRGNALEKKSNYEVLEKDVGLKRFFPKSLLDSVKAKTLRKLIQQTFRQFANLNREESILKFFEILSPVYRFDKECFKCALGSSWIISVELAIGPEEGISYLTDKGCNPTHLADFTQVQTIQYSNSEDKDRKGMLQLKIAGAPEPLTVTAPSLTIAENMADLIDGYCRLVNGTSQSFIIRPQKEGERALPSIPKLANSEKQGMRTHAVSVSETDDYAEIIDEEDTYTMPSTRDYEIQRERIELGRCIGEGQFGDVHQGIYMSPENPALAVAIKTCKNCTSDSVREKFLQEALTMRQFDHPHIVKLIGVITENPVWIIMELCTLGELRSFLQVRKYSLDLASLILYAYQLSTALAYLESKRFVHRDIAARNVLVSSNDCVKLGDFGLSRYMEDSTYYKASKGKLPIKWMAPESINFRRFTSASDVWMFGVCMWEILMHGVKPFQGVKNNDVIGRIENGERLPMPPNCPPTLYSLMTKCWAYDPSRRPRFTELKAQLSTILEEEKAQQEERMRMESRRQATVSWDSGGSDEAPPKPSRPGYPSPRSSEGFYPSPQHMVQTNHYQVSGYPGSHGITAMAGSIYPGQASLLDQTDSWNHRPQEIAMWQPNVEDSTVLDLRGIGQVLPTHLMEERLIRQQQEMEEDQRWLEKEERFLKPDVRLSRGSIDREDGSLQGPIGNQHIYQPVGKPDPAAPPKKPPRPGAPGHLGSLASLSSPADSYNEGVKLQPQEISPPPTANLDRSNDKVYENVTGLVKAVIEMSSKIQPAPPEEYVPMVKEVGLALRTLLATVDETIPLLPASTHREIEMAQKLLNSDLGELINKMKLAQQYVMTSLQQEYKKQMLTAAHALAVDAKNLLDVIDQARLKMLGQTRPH

Regarding `COc1cc(Nc2ncc(Br)c(Nc3ccccn3)n2)cc(OC)c1OC`, inhibition was half-maximal at 100 nM (IC50). The value for `COc1cc(Nc2ncc3ccn(-c4ccccn4)c3n2)cc(OC)c1OC` was 200 nM.
